Assay results reported in PMC4490944 (Journal of immunology (Baltimore, Md. : 1950), 2015).

Assays:
[1] = molecular target: HLA-DR1 (DR1) (DRA*0101/DRB1*010101) (Homo sapiens, UniProt P01903+P01911, A100R/D57E/F55L/F60I/F76Y/I96L/L162R/M171V/P40L/Q125E/R42F/V115G/Y59C); assay: Numerical modeling; format: binding; conditions: Scheme V
MHC II = conditions: as previously reported; cited from earlier work

Ac-PRFVKQNTLRLAT [HA]
k-3 (values that could produce the same fits) ([1]; bound for same fit): less than 1×10^−4 | k-6 (values that could produce the same fits) ([1]; bound for same fit): less than 1×10^−4 | k-7 (values that could produce the same fits) ([1]; bound for same fit): less than 1×10^−4 | k5 ([1]; best fit value, DM-MHC resolves into inactive MHC II in the absence of peptides, kept the same for HA and CLIP, 0.4 μM DR1, 0.4 μM DM): 0.36 min⁻¹ | intrinsic and DM-catalyzed dissociation half-life (MHC II): ~ 100 hours
